22 compounds from PubChem BioAssay AID256 (DTP/NCI, 2004) can be followed below.

Each structure is given as a SMILES string. Several values for one entry are separate records, joined by “and”; a condition that tells them apart may be missing. Equal entries are not always repeated. Toxic doses and inconclusive results are not listed.

This assay concerns CD2F1 mice, L1210 leukemia ip, survival T/C. Description: NCI In Vivo Anticancer Drug Screen. Data for tumor model L1210 Leukemia (intraperitoneal) in CD2F1 (CDF1) mice. The following applies: higher = longer survival. A digest of the protocol: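 Each value reflects a quotient of treated over vehicle control outcomes in mice with a transplanted tumor.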
The mark [1] stands for this setting: endpoint: mean survival time, dose: 50.0 mg/kg/injection, schedule: Q01DX009 (ip), vehicle: saline with Tween-80.
Setting [2] is: endpoint: mean survival time, dose: 100.0 mg/kg/injection, schedule: Q01DX001 (ip), vehicle: saline with Tween-80.
Where [3] appears, read: endpoint: mean survival time, dose: 100.0 mg/kg/injection, schedule: Q01DX009 (ip), vehicle: saline with Tween-80.
[4] abbreviates: endpoint: mean survival time, dose: 200.0 mg/kg/injection, schedule: Q01DX001 (ip), vehicle: saline with Tween-80.
Setting [5] is: endpoint: mean survival time, dose: 200.0 mg/kg/injection, schedule: Q01DX009 (ip), vehicle: saline with Tween-80.
[6] abbreviates: endpoint: mean survival time, dose: 100.0 mg/kg/injection, schedule: Q04DX003 (ip), vehicle: saline with Tween-80.
The mark [7] stands for this setting: endpoint: mean survival time, dose: 200.0 mg/kg/injection, schedule: Q04DX003 (ip), vehicle: saline with Tween-80.
The mark [8] stands for this setting: endpoint: mean survival time, dose: 100.0 mg/kg/injection, schedule: Q01DX001 (ip), vehicle: saline.
The mark [9] stands for this setting: endpoint: mean survival time, dose: 200.0 mg/kg/injection, schedule: Q01DX001 (ip), vehicle: saline.
Setting [10] is: endpoint: mean survival time, dose: 400.0 mg/kg/injection, schedule: Q01DX001 (ip), vehicle: saline.
The mark [11] stands for this setting: endpoint: mean survival time, dose: 400.0 mg/kg/injection, schedule: Q01DX001 (ip), vehicle: saline with Tween-80.
The mark [12] stands for this setting: endpoint: mean survival time, dose: 400.0 mg/kg/injection, schedule: Q01DX009 (ip), vehicle: saline with Tween-80.
Setting [13] is: endpoint: mean survival time, dose: 400.0 mg/kg/injection, schedule: Q04DX003 (ip), vehicle: saline with Tween-80.
The mark [14] stands for this setting: endpoint: mean survival time, dose: 75.0 mg/kg/injection, schedule: Q01DX001 (ip), vehicle: saline.

On to `O=C1OC(=O)C2C3C=CC(C4C=CC43)C12` (stereo unspecified), for which the T/C was 102 % of control under setting [1]; 101 % of control under setting [2]; 102 % of control under setting [3]; 98 % of control under setting [4]; 97 % of control under setting [5].

Take `O=CC1C(=O)Nc2ccccc21` (stereo unspecified): the T/C under setting [1] was 96 % of control, the T/C under setting [3] is 96 % of control and the T/C under setting [5] was 104 % of control.

For `O=S(=O)(O)O.[Fe]`, the T/C (endpoint: mean survival time, dose: 50.0 mg/kg/injection, schedule: Q01DX009 (ip), vehicle: saline sonified) is 86 % of control; the T/C under setting [6] is 96 % of control; the T/C under setting [7] was 88 % of control.

For `Cc1cc(C)c2c(C#N)cn(-c3ccccc3)c2n1`, the T/C runs as follows: under setting [8], 104 % of control; under setting [9], 100 % of control; under setting [10], 100 % of control.

Take `CCOn1nc(-c2cccc3ccccc23)oc1=O`: the T/C by setting is: under setting [2], 91 % of control; under setting [4], 95 % of control; under setting [11], 95 % of control.

For the compound `CCCCC/C(C)=N\O`, the T/C is 98 % of control (endpoint: mean survival time, dose: 50.0 mg/kg/injection, schedule: Q01DX009 (ip), vehicle: saline); 104 % of control under setting [8]; 98 % of control (endpoint: mean survival time, dose: 100.0 mg/kg/injection, schedule: Q01DX009 (ip), vehicle: saline); 103 % of control under setting [6]; 95 % of control under setting [9]; 101 % of control (endpoint: mean survival time, dose: 200.0 mg/kg/injection, schedule: Q01DX009 (ip), vehicle: saline). Further, the T/C is, setting by setting: under setting [7], 97 % of control; under setting [10], 98 % of control.

`CCC(C(=O)O)c1ccc(-c2ccccc2)cc1` (stereo unspecified): the T/C runs as follows: under setting [2], 91 % of control; under setting [4], 93 % of control; under setting [11], 92 % of control.

For the compound `COc1ccc(NCC(=O)O)c([N+](=O)[O-])c1`, the T/C was 91 % of control under setting [6] and 101 % of control under setting [7].

With `CC1=CC2C(O)(CC(CO)=CC3C4C(C)(C)C4(OC(=O)c4ccccc4)C(OC(=O)c4ccccc4)C(C)C32O)C1=O` (stereo unspecified), the T/C was 95 % of control (endpoint: median survival time, dose: 0.25 mg/kg/injection, schedule: Q01DX009 (ip), vehicle: saline with Tween-80); 94 % of control (endpoint: median survival time, dose: 0.5 mg/kg/injection, schedule: Q01DX009 (ip), vehicle: saline with Tween-80); 94 % of control (endpoint: median survival time, dose: 1.0 mg/kg/injection, schedule: Q01DX009 (ip), vehicle: saline with Tween-80).

Regarding `C=CCOC1C=CCCC1` (stereo unspecified), the T/C (endpoint: mean survival time, dose: 100.0 mg/kg/injection, schedule: Q04DX002 (ip), vehicle: saline) is 100 % of control; the T/C (endpoint: mean survival time, dose: 200.0 mg/kg/injection, schedule: Q04DX002 (ip), vehicle: saline) was 100 % of control; the T/C (endpoint: mean survival time, dose: 400.0 mg/kg/injection, schedule: Q04DX002 (ip), vehicle: saline) was 91 % of control.

In the case of `COC(=O)c1cc2ccccc2cc1OC`, the T/C runs as follows: under setting [3], 102 % of control; under setting [6], 95 % of control; under setting [5], 109 % of control; under setting [7], 97 % of control; under setting [12], 101 % of control; under setting [13], 97 % of control.

In the case of `O=C(/C(Br)=C/c1ccccc1[N+](=O)[O-])c1ccccc1`, the T/C under setting [2] is 98 % of control, the T/C under setting [4] was 95 % of control and the T/C under setting [11] was 98 % of control.

Take `O=NN(CCCl)C(=O)Nc1ccc2[nH]c3ccccc3c2c1`: the T/C (endpoint: mean survival time, dose: 25.0 mg/kg/injection, schedule: Q01DX009 (ip), vehicle: Klucel (hydroxypropylcellulose) (HPC)) was 101 % of control; the T/C (endpoint: mean survival time, dose: 50.0 mg/kg/injection, schedule: Q01DX009 (ip), vehicle: Klucel (hydroxypropylcellulose) (HPC)) was 116 % of control; the T/C (endpoint: mean survival time, dose: 100.0 mg/kg/injection, schedule: Q01DX009 (ip), vehicle: Klucel (hydroxypropylcellulose) (HPC)) was 118 % of control; the T/C (endpoint: mean survival time, dose: 177.0 mg/kg/injection, schedule: Q01DX009 (ip), vehicle: saline with Tween-80) is 91 % of control; the T/C (endpoint: mean survival time, dose: 200.0 mg/kg/injection, schedule: Q01DX009 (ip), vehicle: Klucel (hydroxypropylcellulose) (HPC)) was 123 % of control; the T/C under setting [12] was 104 % of control.

Consider `CCOC(=O)/C=C/C(=O)[O-].CCOC(=O)/C=C/C(=O)[O-].NC1CCCCC1N.[Pt+4]`, for which the T/C runs as follows: (endpoint: median survival time, dose: 3.12 mg/kg/injection, schedule: Q04DX003 (ip), vehicle: saline with Tween-80) 101 % of control and 103 % of control; (endpoint: median survival time, dose: 6.25 mg/kg/injection, schedule: Q04DX003 (ip), vehicle: saline with Tween-80) 103 % of control and 108 % of control; (endpoint: median survival time, dose: 12.5 mg/kg/injection, schedule: Q04DX003 (ip), vehicle: saline with Tween-80) 113 % of control and 112 % of control; (endpoint: median survival time, dose: 25.0 mg/kg/injection, schedule: Q04DX003 (ip), vehicle: saline with Tween-80) 123 % of control; (endpoint: median survival time, dose: 100.0 mg/kg/injection, schedule: Q04DX003 (ip), vehicle: saline with Tween-80) 164 % of control; (endpoint: median survival time, dose: 200.0 mg/kg/injection, schedule: Q04DX003 (ip), vehicle: saline with Tween-80) 166 % of control and 333 % of control.

On to `NNC(=O)c1ccccc1Cl`, for which the T/C was 97 % of control (endpoint: mean survival time, dose: 9.5 mg/kg/injection, schedule: Q01DX001 (ip), vehicle: other); 95 % of control (endpoint: mean survival time, dose: 19.0 mg/kg/injection, schedule: Q01DX001 (ip), vehicle: other); 97 % of control (endpoint: mean survival time, dose: 38.0 mg/kg/injection, schedule: Q01DX001 (ip), vehicle: other).

`O=C1C(=O)c2ccccc2-c2ccccc21.O=C1C(=O)c2ccccc2-c2ccccc21.[Hg]`: the T/C by setting is: (endpoint: mean survival time, dose: 1.56 mg/kg/injection, schedule: Q04DX002 (ip), vehicle: saline with Tween-80) 87 % of control; (endpoint: mean survival time, dose: 3.13 mg/kg/injection, schedule: Q04DX002 (ip), vehicle: saline with Tween-80) 98 % of control; (endpoint: mean survival time, dose: 6.25 mg/kg/injection, schedule: Q04DX002 (ip), vehicle: saline with Tween-80) 113 % of control.

Regarding `CN(C)/C=C/C#N`, under setting [14], the T/C is 102 % of control.

In the case of `NC(=S)N/N=C1/CCN2CCCc3cccc1c32`, the T/C was 98 % of control (endpoint: mean survival time, dose: 5.0 mg/kg/injection, schedule: Q01DX001 (ip), vehicle: saline with Tween-80); 97 % of control (endpoint: mean survival time, dose: 10.0 mg/kg/injection, schedule: Q01DX001 (ip), vehicle: saline with Tween-80); 98 % of control (endpoint: mean survival time, dose: 20.0 mg/kg/injection, schedule: Q01DX001 (ip), vehicle: saline with Tween-80).

For `C(#Cc1ccccn1)c1ccccn1.[Pt].c1ccc([PH+](c2ccccc2)c2ccccc2)cc1.c1ccc([PH+](c2ccccc2)c2ccccc2)cc1`, the T/C runs as follows: (endpoint: median survival time, dose: 3.13 mg/kg/injection, schedule: Q04DX003 (ip), vehicle: distilled water + Tween-80) 104 % of control; (endpoint: median survival time, dose: 6.25 mg/kg/injection, schedule: Q04DX003 (ip), vehicle: distilled water + Tween-80) 105 % of control; (endpoint: median survival time, dose: 12.5 mg/kg/injection, schedule: Q04DX003 (ip), vehicle: distilled water + Tween-80) 100 % of control; (endpoint: median survival time, dose: 25.0 mg/kg/injection, schedule: Q04DX003 (ip), vehicle: distilled water + Tween-80) 97 % of control; (endpoint: median survival time, dose: 50.0 mg/kg/injection, schedule: Q04DX003 (ip), vehicle: distilled water + Tween-80) 96 % of control; (endpoint: median survival time, dose: 100.0 mg/kg/injection, schedule: Q04DX003 (ip), vehicle: distilled water + Tween-80) 94 % of control.

As for `COc1cc(NCCCCN2C(=O)c3ccccc3C2=O)c2ncccc2c1`, the T/C is, setting by setting: under setting [6], 97 % of control; under setting [7], 102 % of control; under setting [13], 96 % of control.

Consider `CCCCCCCCN(CCCCCCCC)CC(O)c1ccc2c(c1)Sc1ccccc1O2` (stereo unspecified), for which the T/C reads like this: under setting [14], 93 % of control; (endpoint: mean survival time, dose: 150.0 mg/kg/injection, schedule: Q01DX001 (ip), vehicle: saline) 90 % of control.

`Cc1cc(C)c(CN)cc1CN`: the T/C (endpoint: mean survival time, dose: 25.0 mg/kg/injection, schedule: Q04DX003 (ip), vehicle: saline with Tween-80) was 91 % of control; the T/C (endpoint: mean survival time, dose: 50.0 mg/kg/injection, schedule: Q04DX003 (ip), vehicle: saline with Tween-80) was 88 % of control; the T/C under setting [6] was 96 % of control.
